This is an account of results in patent US5270334A, “4-methoxy-5-methyl-pyran-3-ol natural products and derivatives thereof” (E. R. Squibb & Sons, Inc., priority 1992, dated 1993).

SMILES strings stand for the structures. In brackets after ≈: the same amount, converted by molar mass. Like-named read-outs stand apart in the source and are kept apart here.

Common to all, as to type: cell-based
One assay concerns Candida species. As to the kind of experiment: antifungal activity of lanomycin. To be noted: in words, Table 4. As for the experimental part: (§1) *Minimal inhibitory concentrations were determined by agar dilution assay
Another assay relates to Gram positive bacteria. As to the kind of experiment: antibacterial activity of lanomycin. To be noted: in words, Table 4. As for the experimental part:
as §1

The next assay concerns Gram negative bacteria. The assay is described as follows: antibacterial activity of lanomycin. The note with it: in words, Table 4. As for the experimental part: as §1
Assay [1] deals with Aspergillus fumigatus. The assay is described as follows: Activity of lanomycin against filamentous fungi, agar dilution (Table 6). As for the experimental part:
(§2) MICs were determined by the agar dilution method using a medium composed of tryptone (5 g), malt extract (3 g), glucose (10 g) and yeast extract (3 g) in 1 L distiled water; 10^4 cfu of the test organism was applied to the agar.
(§3) MICs were determined as in Table 5 except that the inoculum was 10^3 cfu.

Assay [2] concerns Trichophyton rubrum. The assay is described as above. The note with it: SC9199; Trichophyton rubrum SC 9199; 10^3 cfu. As for the experimental part: as §2, §3
The test system of assay [3] is Microsporum canis. Described as above. To be noted: SC9237; Microsporum canis SC 9237; 10^3 cfu. As for the experimental part:
as §2, §3

In assay [4] the test system is Epidermophyton floccosum. The description is as above. The note with it: SC9185; Epidermophyton floccosum SC 9185; 10^3 cfu. The protocol:
as §2, §3

Assay [5] has as its system Trichophyton mentagrophytes. The assay is described as above. To be noted: SC2637; Trichophyton mentagrophytes SC 2637; 10^3 cfu. The protocol:
as §2, §3

The test system of assay [6] is Microsporum canis. As to the kind of experiment: Antibacterial and antifungal activity of lanomycin, agar dilution assay (Table 4). The protocol:
as §1
(§4) **Higher value is based on hazy growth; lower value for clearly

Assay [7] concerns Epidermophyton floccosum. Described as above. As for the experimental part:
as §1, §4

Assay [8] has as its system Aspergillus fumigatus. As to the kind of experiment: MIC of scopularin, agar dilution assay (K-10 agar). The note with it: SC2100, 18 h; Aspergillus fumigatus SC 2100. As for the experimental part: (§5) The following methodology was used to determine the miniumum inhibitory concentration (hereinafter referred to as MIC) of scopularin.
(§6) The aerobic test organisms were grown in approximately 15-20ml of Antibiotic Assay Broth (Difco) by inoculating (in tubes) the broth with a loopful of the organism from a BHI (Difco) agar slant. The inoculated tubes were incubated at 37° C. for 18 to 24 hours. These cultures are assumed to contain 10^7 colony forming units (CFU) per ml and the cultures were diluted 1:100 to give a final inoculum level of 10^5 CFU; dilutions were made with Yeast Beef Broth (Difco).
(§7) Scopularin was dissolved in an appropriate diluent at a concentration of 1,000 μg/ml. Two-fold dilutions were made in Yeast Beef Broth (Difco), resulting in a range from 1000 µg/ml to 0.5 μg/ml. 1.5 ml of each dilution was placed into individual petri dishes to which 13.5ml of K-10 agar was added. The composition of K-10 agar is:
(§8) The final drug concentration in the agar ranged from 100 μg/ml to 0.05 μg/ml. Organism growth control plates containing agar only were prepared and inoculated before and after the test plates. The organisms were applied to the agar surface of each plate with a Denly Multipoint Inoculator (which delivers approximately 0.001 ml of each organism) resulting in a final inoculum of 10^4 CFU on the agar surface.
(§9) The plates were incubated at 37° C. for 18 hours and the MICs determined. The MIC is the lowest concentration of compound inhibiting growth of the organism.

Assay [9] concerns Trichophyton rubrum. The assay is described as follows: MIC of scopularin, agar dilution assay (K-10 agar). To be noted: SC9199, 18 h; Trichophyton rubrum SC 9199. The protocol:
as §5, §6, §7, §8, §9

The subject of a further assay is Candida guilliermondii. The assay is described as follows: MIC of scopularin, agar dilution assay (K-10 agar). The note with it: Meyerozyma guilliermondii. The protocol:
as §5, §6, §7, §8, §9

The next assay concerns Candida parakrusei. As to the kind of experiment: MIC of scopularin, agar dilution assay (K-10 agar). The protocol:
as §5, §6, §7, §8, §9

The test system of the next assay is Candida albicans. The assay is described as follows: MIC of scopularin, agar dilution assay (K-10 agar). The protocol:
as §5, §6, §7, §8, §9

Assay [10] concerns Trichophyton mentagrophytes. The assay is described as follows: MIC of scopularin, agar dilution assay (K-10 agar). The note with it: SC2637, 18 h; Trichophyton mentagrophytes SC 2637. The protocol: as §5, §6, §7, §8, §9
The next assay relates to Candida krusei. The assay is described as follows: MIC of scopularin, agar dilution assay (K-10 agar). To be noted: Pichia kudriavzevii. The protocol: as §5, §6, §7, §8, §9
For a further assay, the system named is Candida glabrata. As to the kind of experiment: MIC of scopularin, agar dilution assay (K-10 agar). To be noted: Nakaseomyces glabratus, SC11, 18 h; Candida glabrata SC 11,267. As for the experimental part: as §5, §6, §7, §8, §9
Assay [11] has as its target T1, lanosterol demethylase of Candida albicans (Candida albicans, UniProt P10613).
T1 construct: 14C-acetate sterol labelling, TLC
As to the kind of experiment: inhibition of lanosterol demethylase, radiolabeled metabolic assay (14C-acetate, lanosterol accumulation). The note with it: Candida albicans SC5314, 14C-acetate, 30°. As for the experimental part:
The inhibition of lanosterol demethylase was determined by two methods: the spectrophotometric carbon monoxide binding assay of Omura and Sato (J. Biol. Chem. 239:2370-2378, 1964) and by a radiolabeled metabolic assay.
The ability of scopularin and its alcohol to inhibit the lanosterol demethylase of Candida albicans can also be visualized by a metabolic assay. Candida albicans, SC5314, was grown overnight at 30° with shaking in the same medium as that used above. Cells were harvested by centrifugation and resuspended in water to give an optical density of 0.3 at 660 nm. 750 μl of this cell suspension, 300 μl of a medium containing 0.35 g Difco yeast nitrogen base without amino acids, 1 g glucose and distilled water to 10 ml, 100 μl of test material and distilled water were combined to give a final volume of 1.425 ml. This was incubated for 15 minutes at 30° C. with shaking, then 3 μCi ^14 C-acetate was added and continued to incubate for 1 hour. Cells were harvested by centrifugation and extracted with 2×0.5 ml methanol; centrifuged, decanted supernate and repeated the extraction with […] methanol-benzene (1:1). Centrifuged, decanted; combined supernates, dried and resuspended in 100 μl chloroform-methanol (1:1). The aliquots were spotted onto silica gel 60 (Merck) plates and developed chromatographically in a solvent containing dichloromethane-acetone (60:1). […]

T1 sequence (P10613 whole entry): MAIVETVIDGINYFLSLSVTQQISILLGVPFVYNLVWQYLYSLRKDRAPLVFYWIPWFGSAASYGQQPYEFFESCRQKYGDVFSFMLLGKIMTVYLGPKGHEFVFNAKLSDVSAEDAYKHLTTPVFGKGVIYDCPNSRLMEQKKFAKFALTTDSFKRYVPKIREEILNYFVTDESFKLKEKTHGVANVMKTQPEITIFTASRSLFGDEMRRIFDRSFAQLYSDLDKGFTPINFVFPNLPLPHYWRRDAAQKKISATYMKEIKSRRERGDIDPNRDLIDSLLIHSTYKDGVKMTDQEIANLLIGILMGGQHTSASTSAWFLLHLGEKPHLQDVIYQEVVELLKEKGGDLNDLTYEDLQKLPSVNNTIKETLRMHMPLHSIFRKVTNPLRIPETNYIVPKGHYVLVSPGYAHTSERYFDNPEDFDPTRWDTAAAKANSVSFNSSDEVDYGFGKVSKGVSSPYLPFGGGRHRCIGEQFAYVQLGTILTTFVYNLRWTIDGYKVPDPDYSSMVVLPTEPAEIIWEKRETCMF

For the molecule `C/C=C/C=C/C=C(\C)[C@H]1OC[C@@H](C)[C@@H](OC)[C@@H]1OC(=O)CN` (relative stereo) [Lanomycin], the “activity against some Candida species” value with Candida species is on record as “showed activity”. In addition, the “activity against Gram positive bacteria” value in the assay with Gram positive bacteria is listed as “not active”. For the same molecule, the “activity against Gram negative bacteria” value with Gram negative bacteria is given as “not active”. The MIC was 100 µg/mL (≈ 323 µM) against Aspergillus fumigatus [1] (SC2100, Aspergillus fumigatus SC 2100, 10^3 cfu); 1.6 µg/mL (≈ 5.17 µM) against Trichophyton rubrum [2]; 0.4 µg/mL (≈ 1.29 µM) against Microsporum canis [3]; 0.4 µg/mL (≈ 1.29 µM) in the assay with Epidermophyton floccosum [4]; 0.4 µg/mL (≈ 1.29 µM) in assay [5]; 100 µg/mL (≈ 323 µM) in the assay with Microsporum canis [6] (SC9237, Microsporum canis SC 9237, higher value, based on hazy growth). Also, the MIC against Microsporum canis [6] (SC9237, Microsporum canis SC 9237, lower value, clearly discernible growth) worked out at 1.6 µg/mL (≈ 5.17 µM); in the assay on Epidermophyton floccosum [7] (SC9185, Epidermophyton floccosum SC 9185, higher value, based on hazy growth), 100 µg/mL (≈ 323 µM); with Epidermophyton floccosum [7] (SC9185, Epidermophyton floccosum SC 9185, lower value, clearly discernible growth), 1.6 µg/mL (≈ 5.17 µM). For the same molecule, the “activity against Aspergillus fumigatus” value with Aspergillus fumigatus [1] (in words, Table 6) was “inactive”.
Regarding `CCC/C=C/C=C/C=C(\C)[C@H]1OC[C@@H](C)[C@@H](OC)[C@@H]1OC(=O)CN` (relative stereo) [Scopularin, (2α, 3β, 4α, 5α)-Tetrahydro-4-methoxy-5-methyl-2-(1-methyl-1,3,5-nonatrienyl)-2H-pyran-3-ol, aminoacetate ester], the MIC is 50 µg/mL in the assay with Aspergillus fumigatus [8]; 0.4 µg/mL in the assay on Trichophyton rubrum [9]; 12.5 µg/mL in the assay on Candida guilliermondii (SC2210, 18 h, Candida guilliermondii SC 2210); 0.4 µg/mL in the assay on Candida guilliermondii (SC2996, 18 h, Candida guilliermondii SC 2996); 0.8 µg/mL in the assay with Candida parakrusei (SC2621, 18 h, Candida parakrusei SC 2621); 1.6 µg/mL in the assay on Candida parakrusei (SC2966, 18 h, Candida parakrusei SC 2966). For the same molecule, the MIC was found to be 100 µg/mL with Candida albicans (SC10, 18 h, Candida albicans SC 10,102); 50 µg/mL with Candida albicans (SC10, 18 h, Candida albicans SC 10,580); 25 µg/mL in the assay with Candida albicans (SC10, 18 h, Candida albicans SC 10,584); 50 µg/mL with Candida albicans (SC10, 18 h, Candida albicans SC 10,585); 50 µg/mL in the assay with Candida albicans (SC11, 18 h, Candida albicans SC 11,422); 100 µg/mL in the assay with Candida albicans (SC12, 18 h, Candida albicans SC 12,734 (Bacilysin^R)). For the same molecule, the MIC turned out to be 50 µg/mL in the assay on Candida albicans (SC14, 18 h, Candida albicans SC 14,021 (Aculeacin^R)); 50 µg/mL with Candida albicans (SC5314, 18 h, Candida albicans SC 5314); 50 µg/mL in the assay on Candida albicans (SC9177, 18 h, Candida albicans SC 9177); 50 µg/mL in the assay on Candida albicans (SC9721, 18 h, Candida albicans SC 9721); 0.2 µg/mL in assay [10]; 0.4 µg/mL in the assay on Candida krusei (SC2967, 18 h). Besides, the MIC in the assay with Candida krusei (SC2968, 18 h, Candida krusei SC 2968, read-out: MIC) stood at 1.6 µg/mL; in the assay on Candida krusei (SC2969, 18 h, Candida krusei SC 2969, read-out: MIC), 1.6 µg/mL; in the assay with Candida glabrata, 25 µg/mL. The “concentration causing accumulation of lanosterol, consistent with inhibition of lanosterol demethylase” value in [11] is given as 6.7×10^-7.
